Data taken from patent US20230295157A1, “3-(1H-IMIDAZOL-2-YL)-2,3,8,8A-TETRAHYDROINDOLIZIN-5(1H)-ONE DERIVATIVES USEFUL AS FACTOR XIA INHIBITORS” (JANSSEN PHARMACEUTICA NV, priority 2020, published 2023).
Read-outs that look alike come from different tables or passages of the source.

Key:
[1] = target: Factor XIa (Homo sapiens (Human), UniProt P03951); test: Factor XIa inhibition assay (FLINT) utilizing a fluorophore-quencher pair peptide substrate; format: biochemical; conditions: 30 min preincubation, kinetic reads over 30 min, read-out: FXIa Kin Inh IC50
Sequence of Factor XIa (P03951 388-625): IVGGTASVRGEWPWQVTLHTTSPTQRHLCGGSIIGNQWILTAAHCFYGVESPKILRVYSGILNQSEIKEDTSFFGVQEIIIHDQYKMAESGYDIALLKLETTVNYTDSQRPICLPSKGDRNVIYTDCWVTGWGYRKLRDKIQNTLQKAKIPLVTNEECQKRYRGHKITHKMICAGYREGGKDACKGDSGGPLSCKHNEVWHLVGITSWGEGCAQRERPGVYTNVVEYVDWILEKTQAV
Sequence of Factor XIa (P03951 19-387 partner): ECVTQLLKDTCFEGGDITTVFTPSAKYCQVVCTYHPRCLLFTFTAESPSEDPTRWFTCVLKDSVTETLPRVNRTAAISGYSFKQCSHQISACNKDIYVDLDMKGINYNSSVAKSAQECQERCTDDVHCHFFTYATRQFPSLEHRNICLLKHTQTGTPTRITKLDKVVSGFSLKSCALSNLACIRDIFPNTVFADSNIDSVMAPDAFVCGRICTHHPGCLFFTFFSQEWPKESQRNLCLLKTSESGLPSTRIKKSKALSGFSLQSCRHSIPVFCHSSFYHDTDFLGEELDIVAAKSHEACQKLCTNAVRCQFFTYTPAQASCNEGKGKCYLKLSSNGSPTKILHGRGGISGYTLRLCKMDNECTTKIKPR
Summary of the method: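 FXIa ([…]) preincubated 30 min with compound (11-point 3-fold dilution, top 100 nM, 2% DMSO), then 15 μM quenched FXI Arg146-based peptide added; Tris pH 7.5, CaCl2, BSA, CHAPS. Fluorescence 485/520 nm read kinetically every 5 min over 30 min at RT; IC50 by 4-parameter fit.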

[2] = target: human plasma kallikrein (Homo sapiens (Human), UniProt P03952); test: Kallikrein inhibition assay (FLINT) utilizing a quenched AMC peptide substrate; format: biochemical; conditions: 30 min preincubation, kinetic reads over 30 min, Z-Gly-Pro-Arg-AMC substrate 50 μM; read-out: Kallikrein Kin Inh IC50
Sequence of human plasma kallikrein (P03952 391-638): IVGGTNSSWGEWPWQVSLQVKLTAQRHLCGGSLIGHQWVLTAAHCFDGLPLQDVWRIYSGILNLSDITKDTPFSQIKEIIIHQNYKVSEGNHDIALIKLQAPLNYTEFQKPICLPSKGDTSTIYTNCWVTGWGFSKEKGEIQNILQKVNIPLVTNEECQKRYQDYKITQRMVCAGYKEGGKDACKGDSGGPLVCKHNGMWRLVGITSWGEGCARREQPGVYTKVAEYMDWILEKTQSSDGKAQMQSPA
Sequence of human plasma kallikrein (P03952 20-390 partner): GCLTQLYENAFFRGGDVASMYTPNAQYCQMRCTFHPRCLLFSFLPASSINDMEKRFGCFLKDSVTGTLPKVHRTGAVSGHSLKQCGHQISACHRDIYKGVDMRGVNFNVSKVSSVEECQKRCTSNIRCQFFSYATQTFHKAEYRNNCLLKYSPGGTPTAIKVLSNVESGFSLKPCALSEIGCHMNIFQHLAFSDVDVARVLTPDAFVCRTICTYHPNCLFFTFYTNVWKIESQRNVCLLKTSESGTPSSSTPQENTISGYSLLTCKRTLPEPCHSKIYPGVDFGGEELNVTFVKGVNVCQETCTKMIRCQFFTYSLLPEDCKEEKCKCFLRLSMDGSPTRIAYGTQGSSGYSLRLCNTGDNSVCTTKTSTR
Summary of the method: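 Enzyme (2 nM final) pre-incubated 30 min at room temperature with compound (11-point, 3-fold, top 1 μM, 2% DMSO), then 50 μM Z-Gly-Pro-Arg-AMC added in Tris pH 7.5 buffer. Kinetic fluorescence 340/440 nm every 5 min over 30 min; IC50 from 4-parameter logistic fit.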

[3] = 5Fam-KLTRAETV-K5Tamra substrate 15 μM
[4] = 5Fam-[…]-K5Tamra substrate 15 μM

Row | IC50 [1, 3] | IC50 [2] | IC50 [1, 4] | Structure (SMILES)
1 | 1.3 nM | 15.6 nM |  | O=C1C=C(c2c(-n3cnnn3)ccc(Cl)c2F)CC2CC[C@@H](c3nc(Cl)c(-c4cc[nH]c(=O)c4)[nH]3)N12 (stereo partly drawn) [Example 199, (3S)-7-(3-chloro-2-fluoro-6-(1H-tetrazol-1-yl)phenyl)-3-(4 chloro-5-(2-oxo-1,2-dihydropyridin-4-yl)-1H-imidazol-2-yl)-2,3,8,8a-tetrahydroindolizin-5(1H)-one]
2 | 0.4 nM | 1.1 nM |  | CNc1nccc(-c2cnc([C@@H]3CC[C@@H]4CC(c5c(-n6cnnn6)ccc(Cl)c5F)=CC(=O)N43)[nH]2)c1F [Example 134, (3S,8aR)-7-(3-chloro-2-fluoro-6-(1H-tetrazol-1-yl)phenyl)-3-(5-(3-fluoro-2-(methylamino)pyridin-4-yl)-1H-imidazol-2-yl)-2,3,8,8a-tetrahydroindolizin-5(1H)-one]
3 |  | 210 nM | 7.3 nM | [2H]C([2H])(O)c1nccc(-c2nc([C@@H]3CC[C@@H]4CC(c5c(-n6cnnn6)ccc(Cl)c5F)=CC(=O)N43)[nH]c2Br)c1F [Example 184, (3S,8aR)-3-(5-bromo-4-(3-fluoro-2-(hydroxymethyl-d2)pyridin-4-yl)-1H-imidazol-2-yl)-7-(3-choro-2-fluoro-6-(1H-tetrazol-1-yl)phenyl)-2,3,8,8a-tetrahydroindolizin-5(1H)-one]
4 | 1.8 nM | 11.4 nM |  | COC(=O)Nc1nccc(-c2cnc([C@@H]3CC[C@@H]4CC(c5c(-n6cnnn6)ccc(Cl)c5F)=CC(=O)N43)[nH]2)c1F [Example 44, Methyl(4-(2-((3S,8aR)-7-(3-chloro-2-fluoro-6-(1H-tetrazol-1-yl)phenyl)-5-oxo-1,2,3,5,8,8a-hexahydroindolizin-3-yl)-1H-imidazol-5-yl)-3-fluoropyridin-2-yl)carbamate]
5 |  | 2.6 nM | 0.3 nM | Nc1nccc(-c2[nH]c([C@@H]3CC[C@@H]4CC(c5cc(Cl)ccc5-n5cnnn5)=CC(=O)N43)nc2F)c1F (single isomer, unassigned) [Example 70, (3S*,8aR)-3-(5-(2-amino-3-fluoropyridin-4-yl)-4-fluoro-1H-imidazol-2-yl)-7-(5-chloro-2-(1H-tetrazol-1-yl)phenyl)-2,3,8,8a-tetrahydroindolizin-5(1H)-one]
6 | 18.8 nM | 162 nM |  | NC(=O)c1ccc(-c2cnc([C@@H]3CC[C@H]4CC(c5c(-n6cnnn6)ccc(Cl)c5F)=CC(=O)N43)[nH]2)c(Cl)n1 [Example 228, 6-Chloro-5-(2-((3S,8aS)-7-(3-chloro-2-fluoro-6-(1H-tetrazol-1-yl)phenyl)-5-oxo-1,2,3,5,8,8a-hexahydroindolizin-3-yl)-1H-imidazol-5-yl)picolinamide]
7 | 3.3 nM | 12.5 nM |  | NC(=O)c1ncc(-c2c[nH]c([C@@H]3CC[C@@H]4CC(c5c(-n6cnnn6)ccc(Cl)c5F)=CC(=O)N43)n2)s1 [Example 205, 5-(2-((3S,8aR)-7-(3-Chloro-2-fluoro-6-(1H-tetrazol-1-yl)phenyl)-5-oxo-1,2,3,5,8,8a-hexahydroindolizin-3-yl)-1H-imidazol-4-yl)thiazole-2-carboxamide]
8 | 0.4 nM | 11.1 nM |  | O=C1C=C(c2c(-n3cnnn3)ccc(Cl)c2F)C[C@H]2CC[C@@H](c3ncc(-c4c[nH]cc4C(F)(F)F)[nH]3)N12 [Example 230, (3S,8aR)-7-(3-Chloro-2-fluoro-6-(1H-tetrazol-1-yl)phenyl)-3-(5-(4-(trifluoromethyl)-1H-pyrrol-3-yl)-1H-imidazol-2-yl)-2,3,8,8a-tetrahydroindolizin-5(1H)-one]
9 | > 100 nM | 17.8 nM |  | NC(=O)c1cc(-c2cnc([C@@H]3CC[C@H]4CC(c5c(-n6cnnn6)ccc(Cl)c5F)=CC(=O)N43)[nH]2)ccc1F [Example 232, 5-(2-((3S,8aS)-7-(3-Chloro-2-fluoro-6-(1H-tetrazol-1-yl)phenyl)-5-oxo-1,2,3,5,8,8a-hexahydroindolizin-3-yl)-1H-imidazol-5-yl)-2-fluorobenzamide]
